Here are results for 12 molecules from ChEMBL document CHEMBL5291721, “A preclinical secondary pharmacology resource illuminates target-adverse drug reaction associations of marketed drugs” (Nat Commun, 2023).

The structures appear in SMILES notation.

Test [1] addresses Sodium-dependent dopamine transporter (Homo sapiens, UniProt Q01959).
Test [2] deals with Beta-1 adrenergic receptor (Homo sapiens, UniProt P08588). The test is classed as functional.
The target of test [3] is T1, Cholecystokinin receptor type A (Homo sapiens, UniProt P32238).
T1 sequence (P32238 whole entry): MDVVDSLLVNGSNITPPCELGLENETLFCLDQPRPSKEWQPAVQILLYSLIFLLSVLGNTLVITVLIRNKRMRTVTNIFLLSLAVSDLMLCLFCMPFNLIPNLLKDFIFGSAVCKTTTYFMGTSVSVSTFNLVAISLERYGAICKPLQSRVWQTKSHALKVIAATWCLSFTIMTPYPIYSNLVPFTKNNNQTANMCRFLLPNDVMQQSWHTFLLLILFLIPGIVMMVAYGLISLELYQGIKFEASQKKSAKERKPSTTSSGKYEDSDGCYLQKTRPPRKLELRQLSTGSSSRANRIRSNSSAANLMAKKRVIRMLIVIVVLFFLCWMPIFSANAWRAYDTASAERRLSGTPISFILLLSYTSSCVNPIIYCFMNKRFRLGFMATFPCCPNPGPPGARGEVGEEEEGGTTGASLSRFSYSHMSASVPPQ

The target in test [4] is Vasopressin V1a receptor (Homo sapiens, UniProt P37288).
Chain of Vasopressin V1a receptor (P37288 whole entry): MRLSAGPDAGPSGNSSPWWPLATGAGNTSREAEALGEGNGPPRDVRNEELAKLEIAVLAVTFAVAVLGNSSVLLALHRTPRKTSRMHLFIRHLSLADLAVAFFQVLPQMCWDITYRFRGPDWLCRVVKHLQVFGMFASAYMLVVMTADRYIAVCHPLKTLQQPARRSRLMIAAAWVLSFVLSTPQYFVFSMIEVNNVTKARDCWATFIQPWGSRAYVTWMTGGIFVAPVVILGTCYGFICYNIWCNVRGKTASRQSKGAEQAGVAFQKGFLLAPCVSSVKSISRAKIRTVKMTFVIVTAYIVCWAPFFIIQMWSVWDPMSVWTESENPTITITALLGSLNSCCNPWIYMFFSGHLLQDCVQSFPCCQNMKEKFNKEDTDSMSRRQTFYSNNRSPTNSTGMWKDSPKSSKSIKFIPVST
The target in test [5] is T2, Adenosine receptor A3 (Homo sapiens, UniProt P0DMS8).
T2 sequence (P0DMS8 whole entry): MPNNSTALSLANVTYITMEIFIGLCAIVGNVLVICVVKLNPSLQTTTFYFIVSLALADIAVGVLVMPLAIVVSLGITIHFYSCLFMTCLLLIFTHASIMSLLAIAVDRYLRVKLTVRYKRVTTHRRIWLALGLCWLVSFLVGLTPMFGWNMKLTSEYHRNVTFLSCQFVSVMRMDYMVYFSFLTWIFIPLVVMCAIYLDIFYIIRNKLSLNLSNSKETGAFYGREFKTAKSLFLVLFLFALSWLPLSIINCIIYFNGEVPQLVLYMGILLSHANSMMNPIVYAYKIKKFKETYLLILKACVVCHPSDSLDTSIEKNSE

For test [6], the target named is Neuronal acetylcholine receptor subunit alpha-4 (Homo sapiens, UniProt P43681).
Chain of Neuronal acetylcholine receptor subunit alpha-4 (P43681 whole entry): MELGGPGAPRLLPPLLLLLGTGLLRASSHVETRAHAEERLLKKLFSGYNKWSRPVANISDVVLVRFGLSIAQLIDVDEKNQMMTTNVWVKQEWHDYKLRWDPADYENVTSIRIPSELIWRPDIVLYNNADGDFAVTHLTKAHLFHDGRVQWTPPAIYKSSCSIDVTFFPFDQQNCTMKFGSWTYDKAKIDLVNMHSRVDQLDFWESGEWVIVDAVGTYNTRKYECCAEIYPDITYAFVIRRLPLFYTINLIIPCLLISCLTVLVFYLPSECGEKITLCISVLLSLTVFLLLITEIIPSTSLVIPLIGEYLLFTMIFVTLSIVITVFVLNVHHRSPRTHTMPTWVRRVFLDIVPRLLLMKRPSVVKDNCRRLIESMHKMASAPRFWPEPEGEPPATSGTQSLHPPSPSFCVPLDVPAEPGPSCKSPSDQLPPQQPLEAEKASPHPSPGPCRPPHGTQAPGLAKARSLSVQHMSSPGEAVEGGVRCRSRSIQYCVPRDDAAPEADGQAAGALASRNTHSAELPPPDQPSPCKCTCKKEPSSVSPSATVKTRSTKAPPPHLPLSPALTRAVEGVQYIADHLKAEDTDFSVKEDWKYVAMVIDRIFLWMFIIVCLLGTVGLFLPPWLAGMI
Test [7] has as its target Bile salt export pump (Homo sapiens, UniProt O95342). It is filed as functional.
The target of test [8] is T3, 5-hydroxytryptamine receptor 2C (Homo sapiens, UniProt P28335).
T3 sequence (P28335 whole entry): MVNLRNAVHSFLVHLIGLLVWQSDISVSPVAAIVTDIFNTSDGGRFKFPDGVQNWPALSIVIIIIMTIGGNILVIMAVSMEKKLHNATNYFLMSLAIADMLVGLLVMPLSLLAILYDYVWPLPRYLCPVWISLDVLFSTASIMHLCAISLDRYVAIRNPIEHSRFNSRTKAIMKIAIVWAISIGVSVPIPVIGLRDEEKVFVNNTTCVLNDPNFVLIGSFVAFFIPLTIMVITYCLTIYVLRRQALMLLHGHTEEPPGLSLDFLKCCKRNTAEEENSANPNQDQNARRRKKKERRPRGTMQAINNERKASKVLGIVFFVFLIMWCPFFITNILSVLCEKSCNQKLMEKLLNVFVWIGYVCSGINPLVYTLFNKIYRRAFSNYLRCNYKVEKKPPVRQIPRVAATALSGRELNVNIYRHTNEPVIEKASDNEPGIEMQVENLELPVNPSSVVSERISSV

Test [9] has as its target T4, Amine oxidase [flavin-containing] A (Homo sapiens, UniProt P21397).
T4 sequence (P21397 whole entry): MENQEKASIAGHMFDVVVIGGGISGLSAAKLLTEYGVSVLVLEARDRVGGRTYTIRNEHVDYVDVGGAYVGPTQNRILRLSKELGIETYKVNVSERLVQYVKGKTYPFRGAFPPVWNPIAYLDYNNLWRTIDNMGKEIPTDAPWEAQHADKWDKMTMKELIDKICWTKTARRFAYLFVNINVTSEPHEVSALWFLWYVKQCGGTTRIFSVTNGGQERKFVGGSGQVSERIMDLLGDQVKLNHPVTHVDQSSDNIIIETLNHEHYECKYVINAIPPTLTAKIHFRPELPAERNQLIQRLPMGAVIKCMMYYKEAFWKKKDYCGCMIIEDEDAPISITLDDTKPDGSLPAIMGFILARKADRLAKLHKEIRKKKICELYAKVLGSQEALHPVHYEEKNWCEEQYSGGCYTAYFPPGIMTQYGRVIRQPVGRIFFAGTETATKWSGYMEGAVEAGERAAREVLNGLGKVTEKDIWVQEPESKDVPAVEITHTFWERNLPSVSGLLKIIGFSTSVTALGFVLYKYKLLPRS
The test is classed as functional.

Test [10] concerns the target 5-hydroxytryptamine receptor 2B (Homo sapiens, UniProt P41595). It is filed as functional, cell-based.
Test [11] addresses T5, Alpha-2C adrenergic receptor (Homo sapiens, UniProt P18825).
T5 sequence (P18825 whole entry): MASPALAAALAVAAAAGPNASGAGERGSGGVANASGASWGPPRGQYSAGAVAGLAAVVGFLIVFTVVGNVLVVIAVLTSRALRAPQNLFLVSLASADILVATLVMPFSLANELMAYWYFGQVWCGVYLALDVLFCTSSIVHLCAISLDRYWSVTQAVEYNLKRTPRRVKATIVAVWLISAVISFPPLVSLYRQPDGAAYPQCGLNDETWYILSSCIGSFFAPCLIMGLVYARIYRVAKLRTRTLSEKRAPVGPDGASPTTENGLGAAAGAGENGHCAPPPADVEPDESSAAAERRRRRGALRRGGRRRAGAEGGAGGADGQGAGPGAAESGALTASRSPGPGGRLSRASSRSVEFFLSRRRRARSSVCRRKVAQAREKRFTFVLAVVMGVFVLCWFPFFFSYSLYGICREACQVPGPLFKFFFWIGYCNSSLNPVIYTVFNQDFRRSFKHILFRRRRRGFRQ
The test is classed as functional.

As usually defined, the AC50 is the midpoint of the concentration-response curve, whichever way the signal moves.
Note: assay procedure not described here.

Chain of Beta-1 adrenergic receptor (P08588 whole entry): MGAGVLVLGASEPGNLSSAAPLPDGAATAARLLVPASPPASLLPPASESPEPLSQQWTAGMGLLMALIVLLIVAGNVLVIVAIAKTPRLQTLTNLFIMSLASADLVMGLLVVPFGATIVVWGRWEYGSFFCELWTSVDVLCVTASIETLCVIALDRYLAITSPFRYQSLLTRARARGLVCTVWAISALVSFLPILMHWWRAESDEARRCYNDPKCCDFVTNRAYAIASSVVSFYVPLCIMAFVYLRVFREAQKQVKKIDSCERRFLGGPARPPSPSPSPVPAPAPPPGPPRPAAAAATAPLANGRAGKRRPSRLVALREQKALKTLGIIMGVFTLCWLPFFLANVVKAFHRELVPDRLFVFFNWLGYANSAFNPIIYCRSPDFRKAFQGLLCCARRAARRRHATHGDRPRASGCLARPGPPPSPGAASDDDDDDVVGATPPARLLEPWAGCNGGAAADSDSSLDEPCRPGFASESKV
Chain of 5-hydroxytryptamine receptor 2B (P41595 whole entry): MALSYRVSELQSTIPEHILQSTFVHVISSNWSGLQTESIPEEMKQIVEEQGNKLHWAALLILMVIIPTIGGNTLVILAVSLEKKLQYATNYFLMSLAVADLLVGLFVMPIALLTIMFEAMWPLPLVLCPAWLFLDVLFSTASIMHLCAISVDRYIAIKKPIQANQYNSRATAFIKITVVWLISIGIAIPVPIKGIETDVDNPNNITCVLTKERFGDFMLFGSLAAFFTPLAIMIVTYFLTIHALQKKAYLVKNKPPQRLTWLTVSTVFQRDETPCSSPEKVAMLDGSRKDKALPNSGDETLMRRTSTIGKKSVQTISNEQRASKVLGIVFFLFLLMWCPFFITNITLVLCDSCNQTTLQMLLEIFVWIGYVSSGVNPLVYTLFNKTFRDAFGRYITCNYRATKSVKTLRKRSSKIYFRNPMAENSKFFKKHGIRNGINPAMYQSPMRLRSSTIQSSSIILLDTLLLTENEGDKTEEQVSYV
Chain of Sodium-dependent dopamine transporter (Q01959 whole entry): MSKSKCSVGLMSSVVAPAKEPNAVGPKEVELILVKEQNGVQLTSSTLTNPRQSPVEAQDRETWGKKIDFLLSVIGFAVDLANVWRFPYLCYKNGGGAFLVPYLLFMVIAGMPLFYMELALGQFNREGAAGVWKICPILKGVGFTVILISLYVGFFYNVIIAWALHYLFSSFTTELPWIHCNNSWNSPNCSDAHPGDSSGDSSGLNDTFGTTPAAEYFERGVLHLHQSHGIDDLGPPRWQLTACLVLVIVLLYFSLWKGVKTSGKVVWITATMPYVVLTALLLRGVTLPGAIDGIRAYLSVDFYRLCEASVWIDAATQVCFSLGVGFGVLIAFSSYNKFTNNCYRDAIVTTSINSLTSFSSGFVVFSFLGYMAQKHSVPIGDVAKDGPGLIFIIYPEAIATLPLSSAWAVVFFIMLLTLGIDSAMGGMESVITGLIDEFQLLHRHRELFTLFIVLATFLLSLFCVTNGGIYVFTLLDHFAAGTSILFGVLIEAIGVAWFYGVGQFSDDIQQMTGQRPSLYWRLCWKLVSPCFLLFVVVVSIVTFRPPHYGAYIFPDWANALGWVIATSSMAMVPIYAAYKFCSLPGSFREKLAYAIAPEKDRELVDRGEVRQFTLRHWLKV
Chain of Bile salt export pump (O95342 whole entry): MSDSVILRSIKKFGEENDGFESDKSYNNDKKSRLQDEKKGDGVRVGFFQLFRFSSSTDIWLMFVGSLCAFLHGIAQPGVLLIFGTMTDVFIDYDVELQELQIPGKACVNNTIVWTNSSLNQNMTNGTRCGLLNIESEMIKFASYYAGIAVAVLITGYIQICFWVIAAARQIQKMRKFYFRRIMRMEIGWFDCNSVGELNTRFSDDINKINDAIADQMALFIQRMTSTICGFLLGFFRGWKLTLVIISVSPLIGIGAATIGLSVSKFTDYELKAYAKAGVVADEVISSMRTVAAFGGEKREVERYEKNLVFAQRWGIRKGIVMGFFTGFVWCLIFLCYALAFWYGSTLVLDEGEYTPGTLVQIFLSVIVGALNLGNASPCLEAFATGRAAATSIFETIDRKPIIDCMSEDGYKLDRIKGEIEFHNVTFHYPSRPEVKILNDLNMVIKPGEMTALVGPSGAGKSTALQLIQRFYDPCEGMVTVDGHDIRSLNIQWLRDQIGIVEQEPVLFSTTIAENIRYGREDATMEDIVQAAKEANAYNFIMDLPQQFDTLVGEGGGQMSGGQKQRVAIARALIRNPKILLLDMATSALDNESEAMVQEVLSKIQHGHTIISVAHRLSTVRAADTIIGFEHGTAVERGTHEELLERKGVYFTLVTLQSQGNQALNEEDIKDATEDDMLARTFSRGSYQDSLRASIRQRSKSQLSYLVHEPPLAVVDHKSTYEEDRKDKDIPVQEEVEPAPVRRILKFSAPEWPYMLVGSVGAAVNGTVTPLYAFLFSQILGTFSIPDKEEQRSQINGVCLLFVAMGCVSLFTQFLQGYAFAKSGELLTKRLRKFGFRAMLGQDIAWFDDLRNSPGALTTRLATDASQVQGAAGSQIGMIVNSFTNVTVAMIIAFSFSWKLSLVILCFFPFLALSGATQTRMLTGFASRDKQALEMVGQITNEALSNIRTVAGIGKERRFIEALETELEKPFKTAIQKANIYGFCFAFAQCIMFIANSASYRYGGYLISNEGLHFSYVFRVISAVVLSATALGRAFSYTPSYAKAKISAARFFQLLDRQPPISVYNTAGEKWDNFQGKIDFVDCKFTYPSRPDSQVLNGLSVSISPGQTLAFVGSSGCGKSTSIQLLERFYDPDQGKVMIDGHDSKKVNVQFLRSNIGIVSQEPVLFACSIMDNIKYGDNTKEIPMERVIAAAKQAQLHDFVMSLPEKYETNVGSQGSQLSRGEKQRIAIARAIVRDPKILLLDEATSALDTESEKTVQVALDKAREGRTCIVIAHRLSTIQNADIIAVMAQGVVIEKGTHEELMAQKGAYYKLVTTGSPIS

As to `CCCCN1C[C@H](O)[C@@H](O)[C@H](O)[C@H]1CO`, the AC50 in [1], in test [2], in [3], in [4], in test [5] and in [6] was more than 30 µM throughout. The AC50 was more than 300 µM in test [7]; more than 30 µM in test [8]; more than 30 µM in [9]; more than 30 µM in test [10]; more than 30 µM in [11].

Consider `CN(C)CCC=C1c2ccccc2C(C)(C)c2ccccc21`, for which the AC50 is more than 30 µM in test [1]; 5.2 µM in test [2]; more than 30 µM in test [3]; more than 30 µM in test [4]; more than 30 µM in [5]; more than 1 µM in test [6]. Moreover, the AC50 in test [7] is 130 µM; in test [8], 5.8 µM; in [9] it was more than 30 µM; in test [10], more than 30 µM; in test [11], 9.67 µM.

As to `CCOC(=O)[C@H](CCc1ccccc1)N[C@@H](C)C(=O)N1[C@H](C(=O)O)C[C@@H]2CCC[C@@H]21`, the AC50 was more than 10 µM in test [1]; more than 10 µM in [2]; more than 30 µM in test [3]; more than 10 µM in [4]; more than 30 µM in test [5]; more than 10 µM in test [6]. The AC50 in test [7] is more than 300 µM; in [8], more than 30 µM; in test [9] it was more than 10 µM; in test [10] it was more than 10 µM; in [11], more than 10 µM.

On to `Nc1nc(NC2CC2)c2ncn([C@H]3C=C[C@@H](CO)C3)c2n1` [ABACAVIR], for which the AC50 in test [1], in [2], in [3], in test [4], in [5] and in test [6] was more than 30 µM throughout. Further, the AC50 was more than 300 µM in test [7]; more than 30 µM in test [8]; more than 30 µM in test [9]; more than 30 µM in test [10]; more than 30 µM in [11].

Regarding `CC(=O)NCCCS(=O)(=O)O` [ACAMPROSATE], the AC50 in test [1], in test [2], in test [3], in test [4], in test [5] and in test [6] was more than 30 µM throughout. The AC50 is more than 300 µM in test [7]; more than 30 µM in [8]; more than 30 µM in test [9]; more than 30 µM in test [10]; more than 30 µM in test [11].

Regarding `CC(=O)Nc1ccc(O)cc1` [ACETAMINOPHEN], the AC50 in test [1], in test [2], in test [3], in [4], in test [5] and in [6] was more than 30 µM throughout. For the same molecule, the AC50 is more than 300 µM in test [7]; more than 30 µM in test [8]; more than 30 µM in test [9]; more than 30 µM in test [10]; more than 30 µM in [11].

Regarding `COc1cc2nc(N(C)CCCNC(=O)C3CCCO3)nc(N)c2cc1OC` (centres undefined) [ALFUZOSIN], the AC50 in test [1], in [2], in test [3], in [4], in test [5] and in test [6] was more than 30 µM throughout. Moreover, the AC50 in [7] was more than 300 µM; in test [8], more than 30 µM; in test [9] it was more than 30 µM; in test [10] it was more than 30 µM; in test [11], 0.81 µM.

For the molecule `CNC(=O)c1ccccc1Sc1ccc2c(/C=C/c3ccccn3)n[nH]c2c1` [AXITINIB], the AC50 in test [1] is 0.07 µM; in test [2] it was more than 30 µM; in [3], more than 30 µM; in test [4], more than 30 µM; in [5], 4.52 µM; in [6], more than 30 µM. The AC50 in [7] is 5.4 µM; in test [8] it was more than 30 µM; in [9] it was more than 30 µM; in test [10] it was more than 30 µM; in test [11], more than 30 µM.

As for `CC[C@H]1OC(=O)[C@H](C)[C@@H](O[C@H]2C[C@@](C)(OC)[C@@H](O)[C@H](C)O2)[C@H](C)[C@@H](O[C@@H]2O[C@H](C)C[C@H](N(C)C)[C@H]2O)[C@](C)(O)C[C@@H](C)CN(C)[C@H](C)[C@@H](O)[C@]1(C)O` [AZITHROMYCIN], the AC50 in test [1] was more than 10 µM; in test [2], more than 10 µM; in [3], more than 30 µM; in test [4], more than 10 µM; in test [5] it was more than 30 µM; in test [6] it was more than 10 µM. For the same molecule, the AC50 in test [7] was 200 µM; in test [8], more than 30 µM; in [9], more than 10 µM; in test [10], more than 10 µM; in [11], more than 10 µM.

In the case of `NCC(CC(=O)O)c1ccc(Cl)cc1` (centres undefined) [BACLOFEN], the AC50 in [1] is more than 30 µM; in test [2], more than 30 µM; in test [3], more than 30 µM; in test [4], more than 30 µM; in test [5], 4.2 µM; in test [6], more than 30 µM. Besides, the AC50 was more than 300 µM in test [7]; more than 30 µM in test [8]; more than 30 µM in [9]; more than 30 µM in [10]; more than 30 µM in test [11].

Turning to `CC1=C(C(=O)O)N2C(=O)[C@@H](NC(=O)[C@H](N)c3ccccc3)[C@H]2SC1` [CEPHALEXIN ANHYDROUS], the AC50 in test [2] was more than 10 µM; in test [3], more than 30 µM; in test [4], more than 10 µM; in [5], more than 30 µM; in test [6], more than 10 µM; in [7], more than 300 µM. For the same molecule, the figures for the AC50 in test [8], in test [9] and in test [11] were more than 30 µM, more than 10 µM and more than 10 µM, respectively.

On to `CCCN1C[C@H](CSC)C[C@@H]2c3cccc4[nH]cc(c34)C[C@H]21` [PERGOLIDE], for which the AC50 was 14.9 µM in [1]; more than 30 µM in test [2]; more than 30 µM in [3]; more than 30 µM in test [4]; more than 30 µM in test [5]; more than 30 µM in test [6]. The AC50 was more than 10 µM in test [7], more than 30 µM in [9], 0.0155 µM in [10] and 1.04 µM in [11].
